Consider 10 compounds from paper PMC8232621, “Antimicrobial Activity of a Library of Thioxanthones and Their Potential as Efflux Pump Inhibitors” (Pharmaceuticals, 2021).

SMILES strings stand for the structures.

In one series the test system is E. coli SA/2. In words: Synergy with cefotaxime (antibiotic MIC in presence of compound). It is filed as cell-based. The text has this: The referred library of thioxanthones was initially tested for their antimicrobial activity against six bacterial strains: the Gram-negative Escherichia coli ATCC 25922, Pseudomonas aeruginosa ATCC 27853 and Salmonella enterica serovar Typhimurium SL1344 (SE03), with the acrA gene deleted, and the Gram-positive Staphylococcus aureus ATCC 29213, Enterococcus faecalis ATCC 29212 and the methicillin and ofloxacin-resistant clinical isolate S. aureus 272123. For the synergy assay, two clinically relevant isolates were used: the extended-spectrum β-lactamase (ESBL)-producing E. coli SA/2 [23] and the vancomycin-resistant E. faecalis (VRE) B3/101 [23]. The antibiotics used were cefotaxime (CTX) and vancomycin (VAN), respectively.
The combined effect of the compounds and clinically relevant antimicrobial drugs was evaluated by determining the antibiotic’s MIC in the presence of each compound. […] The antibiotic tested was serially diluted, whereas the concentration of each compound was kept fixed. […]

The target of another series is T1, P-glycoprotein (P-gp) (Homo sapiens, UniProt P08183).
T1 construct: P-glycoprotein (P-gp) activity assessed by fluorescence spectroscopy in Caco-2 cells; endogenous in cells; host or cells: Caco-2 cells (ECACC)
Description: P-gp transport activity, RHO 123 accumulation in Caco-2 cells in presence of compounds (90 min). It is filed as cell-based. As to conditions: 20 µM only during the 90 min incubation with RHO 123. As to the method:
Concerning the second experimental approach used to evaluate the effects of the compounds in P-gp activity, Caco-2 cells were exposed to thioxanthone derivatives (20 µM) only during the 90 min of incubation with the fluorescent substrate (RHO 123, 10 µM). This experimental approach aims to evaluate the potential immediate effects of thioxanthone derivatives on P-gp activity as a result of a direct inhibition or activation of the protein, i.e., not to change the protein expression. […] In contrast, compounds 12 and 13 caused a significant and immediate decrease in P-gp activity (to 82 and 85%, respectively), when compared to control cells (0 µM).
The effect of the tested compounds on P-gp activity was evaluated using rhodamine 123 (RHO 123) as a P-gp fluorescent substrate, and ZOS as a specific third-generation P-gp inhibitor. Indeed, several studies report the use of RHO 123 accumulation/efflux assays for the direct assessment of P-gp activity through the quantification of the intracellular fluorescence of the P-gp substrate. Caco-2 cells were seeded in 24-well plates at a density of 60,000 cells/cm^2 and, three days after seeding, and submitted to two different protocols of RHO 123 accumulation: 1) RHO 123 accumulation in cells pre-exposed to the compounds (20 µM) for 24 h; 2) RHO 123 accumulation in the presence of the tested compounds (20 µM) for 90 min, as previously described.
On the other hand, in the second protocol, the cells were exposed to the tested compounds 30 min prior to addition of the P-gp fluorescent substrate, RHO 123, and remained in contact with the cells only during the substrate accumulation period, thus aiming to detect immediate effects of the tested compounds on P-gp activity as a result of a direct P-gp activation or inhibition. For that purpose, three days after seeding, the cell culture medium was removed, and the cells submitted to the following procedures:
RHO 123 accumulation under normal conditions (NA): pre-exposure to compounds (20 μM), prepared in HBSS (+/+), for 30 min at 37 °C, followed by incubation with RHO 123 (5 μM) for 90 min, at 37 °C, in a humidified 5% CO2 and 95% O2 air atmosphere. Control cells were only exposed to RHO 123.
RHO 123 accumulation in the presence of the P-gp inhibitor (IA): simultaneous pre-exposure to compounds (20 μM) and ZOS (5 μM), both prepared in HBSS (+/+), for 30 min at 37 °C, followed by incubation with RHO 123 (5 μM) for 90 min, at 37 °C, in a humidified 5% CO2 and 95% O2 air atmosphere. Control cells were only exposed to ZOS and RHO 123.
After the 90 min of incubation with RHO 123, the cells were washed twice with HBSS (-/-) and lysed with 1% Triton™ X100, for 30 min, in the dark, at room temperature. RHO 123 intracellular fluorescence was then measured at excitation/emission wavelengths of 485/528 nm, in a multi-well plate reader (PowerWave-X, BioTek Instruments, VT, USA) and expressed as fluorescence intensity (FI). The ratio between the FI after inhibited RHO 123 accumulation (IA) and the FI of non-inhibited RHO 123 accumulation (NA) was the parameter used for comparison, and the results were expressed as a percentage of control cells (Equation (3)). Given the high autofluorescence of several of the tested compounds at the conditions used to measure RHO 123 fluorescence, only compounds 9, 10, 12, 13, and 14 were able to be tested for their potential immediate effect on P-gp activity. Four independent experiments were performed, in triplicate.
On the technique in general: Passage across Caco-2 layers is used to estimate intestinal permeability.

The test system of the next series is Caco-2 cells. In words: Cytotoxicity in Caco-2 cells, neutral red (NR) uptake assay. It is filed as cell-based, human. The following applies: 24 h after exposure. As to the method: Caco-2 cells were routinely cultured in 75 cm^2 flasks using DMEM with 4.5 g/L glucose supplemented with 10% FBS, 1% NEAA and 1% antibiotic. Cells were maintained at 37 °C, in a 5% CO2 and 95% air atmosphere, and the cell culture medium was changed every 2−3 days. Cultures were passaged weekly by trypsinization (0.25% trypsin/1 mM EDTA). In all experiments, the cells were seeded at a density of 60,000 cells/cm^2 and used three days after seeding, when confluence was reached. The cells used in all experiments were taken between the 55th and 64th passages.
The compounds’ (0−20 μM) cytotoxicity was evaluated by the neutral red (NR) uptake and Sulforhodamine B (SRB) binding assays, 24 h after exposure. Caco-2 cells were seeded onto 96-well plates at a density of 60,000 cells/cm^2 and exposed, after reaching confluence (three days after seeding), to the compounds (0–20 μM), in a fresh cell culture medium. Triton™ X-100 (0.1%) was used as a positive control.
The NR assay is based on the ability of viable cells to incorporate and bind the supravital dye NR into the lysosomes, thus providing a quantitative estimation of the number of viable cells in a culture. Twenty-four hours after exposure to the compounds, the cell culture medium was removed, followed by the addition of fresh cell culture medium containing 50 μg/mL NR, and incubation at 37 °C in a humidified 5% CO2 and 95% air atmosphere, for 90 min. After this incubation period, the cell culture medium was removed, the dye absorbed only by viable cells extracted with absolute ethyl alcohol/distilled water (1:1) with 5% acetic acid, and the absorbance measured at 540 nm in a multiwell plate reader (PowerWaveX BioTek Instruments, VT, USA). The percentage of NR uptake relatively to that of the control cells (0 µM) was used as the cytotoxicity measure. Five independent experiments were performed, in triplicate.

T1 sequence (P08183 whole entry): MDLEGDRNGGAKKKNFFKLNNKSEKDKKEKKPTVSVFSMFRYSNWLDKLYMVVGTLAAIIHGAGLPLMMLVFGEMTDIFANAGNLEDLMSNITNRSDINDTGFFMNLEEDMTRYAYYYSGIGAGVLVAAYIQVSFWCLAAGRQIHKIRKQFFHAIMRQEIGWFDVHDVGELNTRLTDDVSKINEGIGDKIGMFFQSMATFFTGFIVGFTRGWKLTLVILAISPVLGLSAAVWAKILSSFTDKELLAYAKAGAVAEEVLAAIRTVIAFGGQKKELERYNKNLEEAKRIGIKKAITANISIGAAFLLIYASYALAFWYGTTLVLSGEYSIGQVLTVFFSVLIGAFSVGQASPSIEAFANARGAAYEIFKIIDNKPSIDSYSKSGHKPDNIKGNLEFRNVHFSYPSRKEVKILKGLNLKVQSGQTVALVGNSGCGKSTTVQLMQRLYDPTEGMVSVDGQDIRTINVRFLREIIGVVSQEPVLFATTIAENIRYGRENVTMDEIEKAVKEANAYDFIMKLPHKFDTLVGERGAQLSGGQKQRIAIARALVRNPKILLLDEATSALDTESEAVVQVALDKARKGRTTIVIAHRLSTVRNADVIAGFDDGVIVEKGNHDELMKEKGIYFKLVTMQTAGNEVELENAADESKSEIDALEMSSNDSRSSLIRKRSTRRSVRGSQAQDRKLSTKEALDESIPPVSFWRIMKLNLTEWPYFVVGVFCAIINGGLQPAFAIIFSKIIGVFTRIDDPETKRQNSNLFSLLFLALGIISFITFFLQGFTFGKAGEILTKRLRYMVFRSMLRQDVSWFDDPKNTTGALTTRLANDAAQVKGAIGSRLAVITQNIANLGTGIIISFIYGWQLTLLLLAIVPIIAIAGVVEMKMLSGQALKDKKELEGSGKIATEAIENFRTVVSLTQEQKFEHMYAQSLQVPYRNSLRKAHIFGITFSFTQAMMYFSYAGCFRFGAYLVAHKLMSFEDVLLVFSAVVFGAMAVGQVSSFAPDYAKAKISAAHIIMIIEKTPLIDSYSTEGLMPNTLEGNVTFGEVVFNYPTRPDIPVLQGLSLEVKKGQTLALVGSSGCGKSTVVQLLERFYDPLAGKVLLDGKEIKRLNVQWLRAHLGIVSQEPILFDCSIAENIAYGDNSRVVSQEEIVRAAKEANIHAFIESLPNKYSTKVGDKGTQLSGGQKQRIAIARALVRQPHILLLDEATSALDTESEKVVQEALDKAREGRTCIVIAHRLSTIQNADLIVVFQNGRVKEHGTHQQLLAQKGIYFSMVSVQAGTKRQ

Regarding `CCCOc1ccc(Nc2nc(C)cc(C)n2)c2c(=O)c3ccccc3sc12` [Compound 8, 1-[(4,6-Dimethylpyrimidin-2-yl)amino]-4-propoxy-9H-thioxanthen-9-one], the “decrease in the MIC of CTX” value in the series with E. coli SA/2 amounted to 4 fold.

Regarding `CCCOc1ccc(N2CCNC(=O)C2)c2c(=O)c3ccccc3sc12` [Compound 9, 4-(9-Oxo-4-propoxy-9H-thioxanthen-1-yl)piperazin-2-one], on P-glycoprotein (P-gp), the “P-gp activity (control cells 100%)” value is listed as “no significant differences”.

Consider `CCCOc1ccc(NCCO)c2c(=O)c3ccccc3sc12` [Compound 10, 1-[(2-Hydroxyethyl)amino]-4-propoxy-9H-thioxanthen-9-one], for which the “P-gp activity (control cells 100%)” value at P-glycoprotein (P-gp) is listed as “no significant differences”. The “decrease in the MIC of CTX” value in the series with E. coli SA/2 was determined as 4 fold.

Regarding `CCCOc1ccc(NS(=O)(=O)c2ccc(C(=O)O)cc2)c2c(=O)c3ccccc3sc12` [Compound 12, 4-[N-(9-Oxo-4-propoxy-9H-thioxanthen-1-yl)sulfamoyl]benzoic acid], at P-glycoprotein (P-gp), the “P-gp activity (control cells 100%)” value turned out to be 82%. Besides, the “decrease in the MIC of CTX” value with E. coli SA/2 was 16 fold.

As to `CCCOc1ccc(NS(=O)(=O)c2ccc(N)cc2)c2c(=O)c3ccccc3sc12` [Compound 13, 4-Amino-N-(9-oxo-4-propoxy-9H-thioxanthen-1-yl)benzenesulfonamide], at P-glycoprotein (P-gp), the “P-gp activity (control cells 100%)” value stood at 85%. Also, the results for the “NR uptake (relative to control cells)” value in the series on Caco-2 cells (10 µM) and in the series on Caco-2 cells (20 µM) were 95.5% and “no significant effect”, respectively.

Consider `CCCOc1ccc(Br)c2c(=O)c3ccccc3sc12` [Compound 14, 1-Bromo-4-propoxy-9H-thioxanthen-9-one], for which the “P-gp activity (control cells 100%)” value on P-glycoprotein (P-gp) was determined as 116%.

On to `CCCOc1ccc2ncnc3c2c1Sc1ccccc1-3` [Compound 15], for which the “NR uptake (relative to control cells)” value in the series on Caco-2 cells (20 µM) is recorded as 92.2%.

On to `CCCOc1ccc2nc(N)nc3c2c1Sc1ccccc1-3` [Compound 16], for which the “NR uptake (relative to control cells)” value in the series with Caco-2 cells (20 µM) amounted to 94.1%.

Turning to `CCCOc1ccc2nc(NCc3ccccc3Cl)nc3c2c1Sc1ccccc1-3` [Compound 17], the “NR uptake (relative to control cells)” value in the series with Caco-2 cells (20 µM) turned out to be 95.5%.

For `CCCOc1ccc2c3c(n/c(=N\c4ccccc4C)n2-c2ccccc2C)-c2ccccc2Sc13` [Compound 18], in the series on E. coli SA/2, the “decrease in the MIC of CTX” value is recorded as 4 fold.
